The structures appear in SMILES notation.

For data set [1], the system named is HT-1080 (epithelial fibrosarcoma). As to the kind of experiment: Proliferation assay (CellTiter 96), HT-1080 cells. The data set is classed as cell-based, human. Particulars: pH 6.5, 44 h, cis-UCA 10 mM, CPT 2 μM, 15,000 cells per 100 μl. From the text: Transformed tumour cell lines WM 266-4 and A2058 (cutaneous melanoma), HT-1080 (epithelial fibrosarcoma), HeLa (epithelial adenocarcinoma of cervix), HK293 (kidney epithelial cells) and non-transformed cell line HSF (skin fibroblast from a healthy volunteer donor) of human origin have been described earlier (Li et al. 2003). The K562 (chronic myelogenous leukemia) cells were purchased from American Type Culture Collection.
The cells were maintained in logarithmic growth phase in IMDM medium (Invitrogen, Paisley, UK) supplemented with 10% fetal calf serum and antibiotics in a humidified incubator at +37° C., 5% CO2. The adherent cells lines were harvested for experiments with 0.25% trypsin-EDTA in PBS for 5 min and then resuspended and washed in medium. After counting of viable cells, 15,000 to 75,000 cells were transferred into flat-bottom 96-well cell culture plates in a volume of 100 or 150 μl.
The proliferation activity of cultured cell lines was quantified in flat-bottom 96-well plates with a modified colorimetric assay based on a tetrazolium derivative (CellTiter 96 Aqueous One Solution Cell Proliferation Assay, Promega). The cells were cultured in the presence of camptothecin and/or cis-UCA for 20 to 92 h, then the proliferation reagent was added for 2 h, and the absorbance at 490 nm was measured in a plate reader. […]

The test system of a further data set is A2058 cells. The data set is described as follows: Monitoring of intracellular pH (BCECF, flow cytometry), A2058 cells. The data set is classed as cell-based, human. The method, then: (§1) The cells were labelled with BCECF and placed in pH-adjusted buffer solutions with or without various concentrations of cis-UCA. Left panels, calibration of BCECF fluorescence intensity of nigericin-treated cells in high-potassium buffer as a function of buffer pH. Right panels, intracellular pH values in buffers with or without various concentrations of cis-UCA. All test buffers were adjusted to pH 7.4 (%) or pH 6.5 (+) after the addition of cis-UCA. Results were calculated using the corresponding calibration curve on the left.
(§2) Intracellular pH in the cell lines in the presence of cis-UCA was measured with the pH-sensitive fluorescent dye 2′,7′-bis-(2-carboxyethyl)-5-(and-6)-carboxyfluorescein (BCECF, acetoxymethyl ester; Molecular Probes, Leiden, The Netherlands) by flow cytometry. Two million cells were incubated in 5 ml DMEM medium (Invitrogen), pH 7.4, containing 0.35 μM BCECF at 37° C. for 30 min, washed once in sodium phosphate buffer (50 mM NaH2PO4/Na2HPO4, 43 mM NaCl), pH 7.4, and resuspended in 0.3 ml saline. Twenty μl of the cell suspension was pipetted into flow cytometry tubes. […]
(§3) Calibration of intracellular pH in situ was performed using the K^+/H^+ ionophore nigericin (Molecular Probes) in high-potassium buffers. […] Exact intracellular pH values were calculated from mean BCECF fluorescence intensities by reference with nigericin-clamped calibration cells. […]
In general terms: Flow cytometry measures light scatter and fluorescence of single cells or particles in a stream.

The subject of a further data set is HeLa cells. The data set is described as follows: Monitoring of intracellular pH (BCECF, flow cytometry), HeLa cells. The data set is classed as cell-based, human. The method, then: as §1, §2, §3
In a further data set the test system is caspase-3. As to the kind of experiment: Determination of caspase-3 activity in A2058 melanoma cells. The data set is classed as cell-based, human. To be noted: 30 mM cis-UCA in pH 6.5 medium, at 2 h. The method, then: The cells were allowed to attach to culture flasks at 5×10^6 cells per 7 ml of medium overnight. The medium was then changed to new medium adjusted to pH 6.5 with or without 30 mM cis-UCA. The cells were incubated for 30 min to 18 h, released with trypsin-EDTA, and lysed for caspase-3 assay. After subtracting the blank values, the mean caspase-3 activity from the cis-UCA-treated cells was divided by the mean value from the corresponding control cells with the same incubation time. The data are the mean±SD from three parallel reactions in the caspase-3 assay.
Caspase-3 is a proteolytic enzyme that has a central role in the apoptotic cascade. The colorimetric assay is based on the hydrolysis of the peptide substrate acetyl-Asp-Glu-Val-Asp p-nitroanilide (Ac-DEVD-pNA) by caspase-3, resulting in the release of p-nitroaniline (pNA).
Cells grown in normal medium were counted and divided into separate cell culture flasks containing 1 μM CPT, 10 mM cis-UCA, or both, in pH 6.5 medium. […] Caspase-3 activity was measured in cell lysates. […] After washing with ice-cold PBS, the counted cells were resuspend in cell lysis buffer (50 mM Hepes, pH 7.4, 5 mM CHAPS, and 5 mM dithiotreitol) in a density of 10^8 cells/ml, incubated on ice for 15-20 min, and the cell lysates pelleted at 15,000×g for 20 min at 4° C. […] Absorbance of the formed end product p-nitroaniline (pNA) was recorded at 405 nm after 2 and 17 h.

For data set [2] the following is noted: cited from earlier work.
Data set [3] deals with human polymorphonuclear neutrophils. To be noted: extracellular pH range 6.1 to 7.0; patent application US2006035973; cited from earlier work.
[4] abbreviates: extracellular pH 6.5, highest cis-UCA concentration (30 mM).
[5] abbreviates: extracellular pH 7.4, cis-UCA up to 30 mM.

Take `O=C(O)/C=C\c1c[nH]cn1` [cis-UCA, cis-urocanic acid]: the “Inhibition of proliferation (mean percentage inhibition ± SD compared with untreated control)” value in data set [1] was 47 ± 0.5%. Besides, the “decrease of intracellular pH” value in the data set with A2058 cells (setting [4]) and in the data set with HeLa cells (setting [4]) was “about 0.25 pH units” throughout. Besides, the “intracellular pH with escalating concentrations” value in the data set on A2058 cells (setting [5]) and in the data set on HeLa cells (setting [5]) was “remained almost constant” in each case. Further, the “peak caspase-3 activity compared to cells treated with pH 6.5 medium only” value with caspase-3 is 380%. For the same molecule, in data set [2] (Roberts et al. 1982, Krien & Kermici 2000), the “second pKa (imidazolyl group)” value is 7.0. In addition, the “first pKa (carboxyl group)” value in data set [2] (Roberts et al. 1982) is 3.3. For the same molecule, the “effect on the intracellular pH of neutrophils” value in data set [3] is “affected the intracellular pH”.

The values above are taken from patent US8338475B2, “Anti-proliferative pharmaceutical composition” (BioCis Pharma Oy, priority 2003, dated 2012).
